# Tested on: Vaccinia virus
# Experiment: The minimum inhibitory concentration required to reduce vaccinia virus induced cytopathogenicity in primary rabbit kidney cells by 50%
# Assay type: functional
# Conditions: Orthopoxvirus vaccinia
row,Compound,MIC [µg/mL]
1,Nc1ncnc2c1ncn2C[C@H](O)CO [(S)-DHPA],10
2,Nc1cc2[nH]ccc2c(O)n1,400
3,Nc1cc2[nH]cnc2c(=O)[nH]1 [DEZAGUANINE],0.1
4,NC(=O)c1ncn([C@@H]2O[C@H](CO)[C@@H](O)[C@H]2O)n1 [RIBAVIRIN],40
